This is an account of results in ChEMBL document CHEMBL5528066, “Discovery of Novel N-(Anthracen-9-ylmethyl) Benzamide Derivatives as ZNF207 Inhibitors Promising in Treating Glioma” (J Med Chem, 2024).

Structures are written as SMILES. Calls of active or inactive are those of the source. The rule behind the calls is not given here. Bounds are passed on as bounds.

For experiment [1], the system named is LN-229. Briefly: Antiproliferative activity against human LN-229 cells assessed as inhibition of cell growth measured after 72 hrs by CCK-8 assay. It is filed as functional, cell-based. To be noted: LN-229, 72 h. (Tetrazolium assays rely on reduction of a dye to a coloured formazan, in cell work by metabolically active cells.)
A further experiment concerns H4. As to the kind of experiment: Antiproliferative activity against human H4 cells assessed as inhibition of cell growth measured after 72 hrs by CCK-8 assay. It is filed as functional, cell-based. As to conditions: H4, 72 h.
For a further experiment, the system named is Hs 683. As to the kind of experiment: Antiproliferative activity against human Hs 683 cells assessed as inhibition of cell growth measured after 72 hrs by CCK-8 assay. It is filed as functional, cell-based. To be noted: Hs 683, 72 h.
For the next experiment, the system named is U-251. Briefly: Antiproliferative activity against human U-251MG cells assessed as inhibition of cell growth measured after 72 hrs by CCK-8 assay. It is filed as functional, cell-based. As to conditions: U-251, 72 h.
Experiment [2] has as its target BUB3-interacting and GLEBS motif-containing protein ZNF207 (Homo sapiens, UniProt O43670). As to the kind of experiment: Binding affinity to human ZNF207 assessed as dissociation constant by SPR analysis.
Experiment [3] deals with LN-229. As to the kind of experiment: Antitumor activity against human LN-229 cells xenografted in BALB/c nude mouse assessed as tumor growth inhibition at 150 mg/kg, ip administered twice a week and measured every 2 days for 49 days relative to control. As to conditions: LN-229, 1176 h, time 49 day, read-out: TGI. The experiment is classed as functional. On the technique in general: In xenograft studies the graft and the host belong to different species.

Experiment [4] has as its system LN-229. Briefly: Antitumor activity against human LN-229 cells xenografted in BALB/c nude mouse assessed as reduction in proportion of Ki-67 positive cells at 150 mg/kg, ip administered twice a week and measured after 49 days by immunohistochemistry analysis. It is filed as functional, organism-based. As to conditions: time 49.0 day.
The next experiment has as its system LN-229-Luc. As to the kind of experiment: Antitumor activity against human Ln-229-Luc cells xenografted in BALB/c nude mouse assessed as increase in overall survival time at 150 mg/kg, ip administered twice a week and measured after 3 to 31 days. To be noted: time 3-31 day. The experiment is classed as functional, organism-based.

Sequence of BUB3-interacting and GLEBS motif-containing protein ZNF207 (O43670 whole entry): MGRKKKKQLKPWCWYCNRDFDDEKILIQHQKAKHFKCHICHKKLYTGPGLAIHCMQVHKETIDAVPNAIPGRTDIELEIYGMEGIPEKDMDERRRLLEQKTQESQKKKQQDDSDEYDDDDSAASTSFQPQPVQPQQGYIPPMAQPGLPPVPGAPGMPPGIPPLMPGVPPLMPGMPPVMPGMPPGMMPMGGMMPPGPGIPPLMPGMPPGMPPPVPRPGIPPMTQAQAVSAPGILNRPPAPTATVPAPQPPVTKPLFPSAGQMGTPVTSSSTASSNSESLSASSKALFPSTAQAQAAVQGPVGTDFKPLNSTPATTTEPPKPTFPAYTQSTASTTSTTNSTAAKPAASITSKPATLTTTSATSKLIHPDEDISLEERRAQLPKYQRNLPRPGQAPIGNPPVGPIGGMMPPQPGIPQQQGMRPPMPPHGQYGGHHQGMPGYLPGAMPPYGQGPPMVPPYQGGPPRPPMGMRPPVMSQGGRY

Regarding `N#CC1(C(=O)NCCSc2ccccc2)CC2(Br)c3ccccc3C1c1ccccc12` (racemic), the IC50 in the experiment on LN-229 [1] worked out at 14.4 µM; with H4, 16.9 µM; in the experiment with Hs 683, 11.6 µM; in the experiment on U-251, 16.8 µM.
In the same order, the values of `N#CC1(C(=O)NCCCc2ccc(Br)cc2)CC2(Br)c3ccccc3C1c1ccccc12` (racemic) are 24.6 µM, 53.1 µM, 47.3 µM and 37.7 µM.
In the same order, the values of `N#CC1(C(=O)NCCc2ccc(Br)cc2)CC2(Br)c3ccccc3C1c1ccccc12` (racemic) are 9.73 µM, 10.3 µM, 8.43 µM and 30 µM.
Turning to `N#CC1(C(=O)Nc2ccc([N+](=O)[O-])cc2)CC2c3ccccc3C1c1ccccc12` (racemic), the IC50 worked out at 19.4 µM in the experiment on LN-229 [1], 25.3 µM in the experiment on H4, 26.4 µM with Hs 683 and 13.5 µM in the experiment with U-251. In addition, in experiment [2], the Kd stood at 2.4 µM.
Turning to `N#CC1(C(=O)NCCc2ccccc2F)CC2(Br)c3ccccc3C1c1ccccc12` (racemic), the half-maximal inhibitory concentration (IC50) in the experiment on LN-229 [1], in the experiment with H4, in the experiment on Hs 683 and with U-251 was over 80 µM throughout.
Turning to `N#CC1(C(=O)NCCS(=O)(=O)Nc2ccc(F)cc2)CC2(Br)c3ccccc3C1c1ccccc12` (racemic), the IC50 with LN-229 [1] was 12.7 µM; in the experiment with H4, 21.9 µM; in the experiment with Hs 683, 17.8 µM; in the experiment with U-251, 21.2 µM.
For the molecule `N#CC1(C(=O)NCCC(=O)Nc2ccc(F)cc2)CC2(Br)c3ccccc3C1c1ccccc12` (racemic), the IC50 with LN-229 [1] was 14.6 µM; in the experiment with H4 it was 15.8 µM; with Hs 683, 12.6 µM; in the experiment with U-251, 49.8 µM.
In the same order, the values of `N#CC1(C(=O)NCCS(=O)(=O)Nc2ccccc2)CC2(Br)c3ccccc3C1c1ccccc12` (racemic) are 26.6 µM, 22.7 µM, 15.2 µM and 23.2 µM.
For `N#CC1(C(=O)NCCS(=O)(=O)c2ccc(Cl)cc2)CC2(Br)c3ccccc3C1c1ccccc12` (racemic) the same measures were 9.14 µM, 15.3 µM, 10.4 µM and 23.5 µM.
In the same order, the values of `N#CC1(C(=O)NCCc2ccc(Cl)cc2)CC2(Br)c3ccccc3C1c1ccccc12` (racemic) are 7.85 µM, 25 µM, 23.1 µM and 24 µM.
Consider `N#CC1(C(=O)NCCCc2ccccc2)CC2(Br)c3ccccc3C1c1ccccc12` (racemic), for which the IC50 in the experiment with LN-229 [1] is 19.8 µM; with H4, 49 µM; with Hs 683, over 80 µM; with U-251, 45.8 µM.
For `Cn1nnc2c(C(N)=O)ncn2c1=O` [TEMOZOLOMIDE], the 50% inhibitory concentration (IC50) in the experiment on LN-229 [1] was determined as 54.1 µM; in the experiment on H4, 47.9 µM; in the experiment on Hs 683 it was 47.2 µM; with U-251 it was 43.5 µM. Also, the inhibition in vivo at 150 mg/kg in the experiment on LN-229 [3] was 69.6%. Besides, the result with LN-229 [4] and in the experiment with LN-229-Luc was Active.

In general, IC50 refers to the concentration that gives 50% inhibition. As usually defined, the Kd is the free concentration of one partner at which half of the binding sites on the other are occupied at equilibrium, for simple one-to-one binding.
